# Test results taken from PubChem BioAssay AID212 (DTP/NCI, 2004).
# Several values for one entry are separate records, joined by “and”; a condition that tells them apart may be missing. Equal values may be shown once. Records with an inconclusive call do not appear.
# Test system: BDF1 mice, colon carcinoma 38 sc, T/C %
# Experiment: NCI In Vivo Anticancer Drug Screen. Data for tumor model Colon Carcinoma 38 (subcutaneous) in B6D2F1 (BDF1) mice
# Conditions: endpoint: median tumor weight (est.), higher = larger tumour
# Method in brief: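 T/C readout: treated group (T) measurement over vehicle control group (C) measurement. Endpoint is survival or tumor size in mice bearing a transplanted tumor.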
# [1] = dose: 25.0 mg/kg/injection, schedule: Q07DX002 (ip), vehicle: saline
# [2] = dose: 50.0 mg/kg/injection, schedule: Q07DX002 (ip), vehicle: saline
# [3] = dose: 100.0 mg/kg/injection, schedule: Q07DX002 (ip), vehicle: saline
# [4] = dose: 200.0 mg/kg/injection, schedule: Q07DX002 (ip), vehicle: saline
# [5] = dose: 400.0 mg/kg/injection, schedule: Q07DX002 (ip), vehicle: saline
# [6] = dose: 800.0 mg/kg/injection, schedule: Q07DX002 (ip), vehicle: saline
# [7] = dose: 12.5 mg/kg/injection, schedule: Q07DX002 (ip), vehicle: saline
# [8] = dose: 25.0 mg/kg/injection, schedule: Q07DX002 (ip), vehicle: saline with Tween-80
compound,measurement,setting,value
CN(C)c1ccc2c(NCCCCCCNc3ccnc4cc(N(C)C)ccc34)ccnc2c1,T/C,"dose: 3.12 mg/kg/injection, schedule: Q07DX002 (ip), vehicle: distilled water + Tween-80 + alcohol",81 % of control
same,T/C,"dose: 6.25 mg/kg/injection, schedule: Q07DX002 (ip), vehicle: distilled water + Tween-80 + alcohol",77 % of control
same,T/C,"dose: 12.5 mg/kg/injection, schedule: Q07DX002 (ip), vehicle: distilled water + Tween-80 + alcohol",62 % of control
same,T/C,"dose: 25.0 mg/kg/injection, schedule: Q07DX002 (ip), vehicle: distilled water + Tween-80 + alcohol",62 % of control
same,T/C,"dose: 50.0 mg/kg/injection, schedule: Q07DX002 (ip), vehicle: distilled water + Tween-80 + alcohol",47 % of control
same,T/C,"dose: 100.0 mg/kg/injection, schedule: Q07DX002 (ip), vehicle: distilled water + Tween-80 + alcohol",20 % of control
O=C(NO)c1ccccc1,T/C,[1],70 % of control
same,T/C,"dose: 25.0 mg/kg/injection, schedule: Q07DX002 (ip), vehicle: suspension in saline",168 % of control
same,T/C,[2],83 % of control
same,T/C,[3],63 % of control
same,T/C,[4],80 % of control
same,T/C,"dose: 200.0 mg/kg/injection, schedule: Q07DX002 (ip), vehicle: suspension in saline",165 % of control
same,T/C,[5],70 % of control
same,T/C,"dose: 400.0 mg/kg/injection, schedule: Q07DX002 (ip), vehicle: suspension in saline",103 % of control
same,T/C,[6],89 % of control
same,T/C,"dose: 800.0 mg/kg/injection, schedule: Q07DX002 (ip), vehicle: suspension in saline",105 % of control
N=C(N)c1ccc(/C=C/c2ccc(C(=N)N)cc2)cc1,T/C,"dose: 12.5 mg/kg/injection, schedule: Q07DX002 (ip), vehicle: Klucel (hydroxypropylcellulose) (HPC)",73 % of control
same,T/C,"dose: 25.0 mg/kg/injection, schedule: Q07DX002 (ip), vehicle: Klucel (hydroxypropylcellulose) (HPC)",114 % of control
same,T/C,"dose: 36.0 mg/kg/injection, schedule: Q07DX002 (ip), vehicle: saline with Tween-80",67 % of control
C[n+]1ccc(Nc2ccc(NC(=O)c3ccc(Nc4cc[n+](C)c5ccc(N)cc45)cc3)cc2)cc1,T/C,"dose: 0.5 mg/kg/injection, schedule: Q07DX002 (ip), vehicle: water",99 % of control
same,T/C,"dose: 1.0 mg/kg/injection, schedule: Q07DX002 (ip), vehicle: water",86 % of control
same,T/C,"dose: 2.0 mg/kg/injection, schedule: Q07DX002 (ip), vehicle: water",93 % of control
COc1cc2c(cc1O)C1C(O)C(O)C=C3CCN(C2)C31 (configuration not stated),T/C,"dose: 4.0 mg/kg/injection, schedule: Q07DX002 (ip), vehicle: saline + alcohol",105 % of control
same,T/C,"dose: 8.0 mg/kg/injection, schedule: Q07DX002 (ip), vehicle: saline + alcohol",79 % of control
same,T/C,"dose: 16.0 mg/kg/injection, schedule: Q07DX002 (ip), vehicle: saline + alcohol",105 % of control
same,T/C,"dose: 32.0 mg/kg/injection, schedule: Q07DX002 (ip), vehicle: saline + alcohol",73 % of control
OC(CCl)CN1CC[N+]2(CC1)CC[N+]1(CCN(CC(O)CCl)CC1)CC2 (configuration not stated),T/C,[7],73 % of control
same,T/C,"dose: 12.5 mg/kg/injection, schedule: Q07DX003 (ip), vehicle: saline",90 % of control
same,T/C,[1],124 % of control
same,T/C,"dose: 25.0 mg/kg/injection, schedule: Q07DX003 (ip), vehicle: saline",91 % of control
same,T/C,[2],90 % of control and 99 % of control
same,T/C,"dose: 50.0 mg/kg/injection, schedule: Q07DX003 (ip), vehicle: saline",76 % of control
same,T/C,[3],60 % of control
same,T/C,"dose: 100.0 mg/kg/injection, schedule: Q07DX003 (ip), vehicle: saline",57 % of control
same,T/C,"dose: 200.0 mg/kg/injection, schedule: Q07DX003 (ip), vehicle: saline",54 % of control
same,T/C,"dose: 400.0 mg/kg/injection, schedule: Q07DX003 (ip), vehicle: saline",44 % of control
same,T/C,[6],30 % of control
COC(=O)Nc1nc2ccc(C3(c4ccc(F)cc4)OCCO3)cc2[nH]1,T/C,[7],111 % of control and 90 % of control
same,T/C,[1],70 % of control and 87 % of control
Cc1ncc([N+](=O)[O-])n1CCSC(N)=O,T/C,"dose: 12.5 mg/kg/injection, schedule: Q07DX003 (ip), vehicle: saline with Tween-80",111 % of control
same,T/C,"dose: 25.0 mg/kg/injection, schedule: Q07DX003 (ip), vehicle: saline with Tween-80",164 % of control
same,T/C,"dose: 100.0 mg/kg/injection, schedule: Q07DX003 (ip), vehicle: saline with Tween-80",108 % of control
COc1cc(C)c2c(c1C=O)Oc1c(c(C)c(O)c3c1C(O)OC3=O)OC2=O (configuration not stated),T/C,"dose: 3.12 mg/kg/injection, schedule: Q07DX003 (ip), vehicle: suspension in saline",93 % of control
same,T/C,"dose: 6.25 mg/kg/injection, schedule: Q07DX003 (ip), vehicle: suspension in saline",60 % of control
same,T/C,"dose: 12.5 mg/kg/injection, schedule: Q07DX003 (ip), vehicle: suspension in saline",65 % of control
same,T/C,"dose: 25.0 mg/kg/injection, schedule: Q07DX003 (ip), vehicle: suspension in saline",93 % of control
same,T/C,"dose: 50.0 mg/kg/injection, schedule: Q07DX003 (ip), vehicle: suspension in saline",87 % of control
COC1=C(Br)[C@H](O)[C@](O)(CC#N)C=C1Br,T/C,"dose: 8.75 mg/kg/injection, schedule: Q07DX002 (ip), vehicle: Klucel (hydroxypropylcellulose) (HPC)",52 % of control
same,T/C,"dose: 17.5 mg/kg/injection, schedule: Q07DX002 (ip), vehicle: Klucel (hydroxypropylcellulose) (HPC)",80 % of control
same,T/C,"dose: 35.0 mg/kg/injection, schedule: Q07DX002 (ip), vehicle: Klucel (hydroxypropylcellulose) (HPC)",49 % of control
same,T/C,"dose: 70.0 mg/kg/injection, schedule: Q07DX002 (ip), vehicle: Klucel (hydroxypropylcellulose) (HPC)",105 % of control
same,T/C,"dose: 140.0 mg/kg/injection, schedule: Q07DX002 (ip), vehicle: Klucel (hydroxypropylcellulose) (HPC)",70 % of control
same,T/C,"dose: 280.0 mg/kg/injection, schedule: Q07DX002 (ip), vehicle: Klucel (hydroxypropylcellulose) (HPC)",56 % of control
CCCCCC[C@@H](O)C/C=C\CCCCCCCC(=O)OCCO,T/C,[2],113 % of control
same,T/C,[3],72 % of control
same,T/C,[4],113 % of control
same,T/C,[5],117 % of control
same,T/C,[6],74 % of control
same,T/C,"dose: 1600.0 mg/kg/injection, schedule: Q07DX002 (ip), vehicle: saline",85 % of control
O=[N+]([O-])c1nccn1CC(O)CO (configuration not stated),T/C,[3],120 % of control
same,T/C,[6],105 % of control
O=NN(CCCl)C(=O)NCCCl,T/C,"dose: 1.0 mg/kg/injection, schedule: Q07DX002 (ip), vehicle: saline with Tween-80",92 % of control
same,T/C,"dose: 2.5 mg/kg/injection, schedule: Q07DX002 (ip), vehicle: saline with Tween-80",66 % of control
same,T/C,"dose: 3.0 mg/kg/injection, schedule: Q07DX002 (ip), vehicle: saline + alcohol",96 % of control
same,T/C,"dose: 4.0 mg/kg/injection, schedule: Q07DX002 (ip), vehicle: saline with Tween-80",82 % of control
same,T/C,"dose: 4.0 mg/kg/injection, schedule: Q07DX003 (ip), vehicle: saline with Tween-80",97 % of control and 98 % of control
same,T/C,"dose: 5.0 mg/kg/injection, schedule: Q07DX002 (ip), vehicle: saline with Tween-80",82 % of control
same,T/C,"dose: 6.0 mg/kg/injection, schedule: Q07DX002 (ip), vehicle: saline + alcohol",88 % of control
same,T/C,"dose: 8.0 mg/kg/injection, schedule: Q07DX003 (ip), vehicle: saline with Tween-80",71 % of control and 87 % of control
same,T/C,"dose: 10.0 mg/kg/injection, schedule: Q07DX002 (ip), vehicle: saline with Tween-80",43 % of control
same,T/C,"dose: 12.0 mg/kg/injection, schedule: Q07DX002 (ip), vehicle: saline + alcohol",59 % of control
same,T/C,"dose: 20.0 mg/kg/injection, schedule: Q07DX002 (ip), vehicle: saline with Tween-80",15 % of control
same,T/C,"dose: 24.0 mg/kg/injection, schedule: Q07DX002 (ip), vehicle: saline + alcohol",37 % of control
same,T/C,"dose: 32.0 mg/kg/injection, schedule: Q07DX003 (ip), vehicle: saline with Tween-80",24 % of control
O=C(CO)c1ccc([N+](=O)[O-])cc1,T/C,"dose: 6.25 mg/kg/injection, schedule: Q07DX002 (ip), vehicle: saline with Tween-80",72 % of control
same,T/C,"dose: 12.5 mg/kg/injection, schedule: Q07DX002 (ip), vehicle: saline with Tween-80",105 % of control
same,T/C,[8],90 % of control
same,T/C,"dose: 100.0 mg/kg/injection, schedule: Q07DX002 (ip), vehicle: saline with Tween-80",97 % of control
same,T/C,"dose: 200.0 mg/kg/injection, schedule: Q07DX002 (ip), vehicle: saline with Tween-80",80 % of control
c1ccc2c(c1)-c1ccccc1C1NC21 (configuration not stated),T/C,"dose: 12.0 mg/kg/injection, schedule: Q07DX002 (ip), vehicle: saline with Tween-80",104 % of control
same,T/C,[8],117 % of control
same,T/C,"dose: 50.0 mg/kg/injection, schedule: Q07DX002 (ip), vehicle: saline with Tween-80",93 % of control
